Reference: ChEMBL document CHEMBL6087405, “Discovery and optimization of anthraquinone derivatives containing substituted bisbenzyloxy groups as a novel scaffold damaged endoplasmic reticulum and against hepatocellular carcinoma cells” (Bioorg Med Chem, 2024)
Activity calls are given as the source filed them. The calls are words filed in the database; no cut-off is given here.

Tests used:
Huh-7 [1] = assay: Induction of morphological change in human Huh-7 cells assessed as membrane wrinkling at 2 to 4 uM measured after 48 hrs by HE staining based microscopic analysis; type: functional, cell-based; conditions: dose 2-4 µM
Huh-7 [2] = assay: Upregulation of Bax protein level in human Huh-7 cells at 2 to 4 uM by Western blot analysis; type: functional, cell-based; conditions: dose 2-4 µM
Huh-7 [3] = assay: Induction of apoptosis in human Huh-7 cells assessed as necrotic cells at 8 uM measured after 48 hrs in presence of Z-VAD by Annexin V-PE staining based flow cytometry analysis (reference value: 3.37%); type: functional
Huh-7 [4] = assay: Upregulation of Cytochrome C level in human Huh-7 cells at 2 to 4 uM by Western blot analysis; type: functional, cell-based; conditions: dose 2-4 µM
Huh-7 [5] = assay: Induction of apoptosis in human Huh-7 cells assessed as viable cells at 8 uM measured after 48 hrs in presence of Z-VAD by Annexin V-PE staining based flow cytometry analysis (reference value: 93.69%); type: functional; conditions: read-out: Activity
Huh-7 [6] = assay: Induction of apoptosis in human Huh-7 cells assessed as late apoptotic cells at 8 uM measured after 48 hrs by Annexin V-PE staining based flow cytometry analysis (reference value: 2.06%); type: functional
Huh-7 [7] = assay: Induction of apoptosis in human Huh-7 cells assessed as late apoptotic cells at 8 uM measured after 48 hrs in presence of Z-VAD by Annexin V-PE staining based flow cytometry analysis (reference value: 2.06%); type: functional
Huh-7 [8] = assay: Upregulation of cleaved caspase-3 protein level in human Huh-7 cells at 2 to 4 uM by Western blot analysis; type: functional, cell-based; conditions: dose 2-4 µM
[9] = Drug localization in endoplasmic reticulum of human Huh-7 cells assessed as colocalization at 100 uM measured within 1 hr by fluorescence based analysis; type: ADME, subcellular; conditions: huh-7, 1 h
Huh-7 [10] = assay: Induction of mitochondrial ROS release in human Huh-7 cells at 2 uM measured after 24 hrs in presence of […] by fluorescent microscopic analysis; type: functional, cell-based
Huh-7 [11] = assay: Induction of ER damage in human Huh-7 cells assessed as decrease in glycoprotein content at 2 to 4 uM incubated for 48 hrs by ELISA method; type: functional, cell-based; conditions: dose 2-4 µM
Huh-7 [12] = assay: Induction of apoptosis in human Huh-7 cells assessed as early apoptotic cells at 8 uM measured after 48 hrs by Annexin V-PE staining based flow cytometry analysis (reference value: 0.88%); type: functional
A549 = assay: Antiproliferative activity against human A549 cells measured after 48 hrs by MTT assay; type: functional, cell-based; conditions: A549, 48 h
Huh-7 [13] = assay: Upregulation of CRT expression level in human Huh-7 cells at 2 to 4 uM measured after 48 hrs by Western blot analysis; type: functional, cell-based; conditions: dose 2-4 µM
Huh-7 [14] = assay: Induction of apoptosis in human Huh-7 cells assessed as necrotic cells at 8 uM measured after 48 hrs by Annexin V-PE staining based flow cytometry analysis (reference value: 3.37%); type: functional
MDA-MB-231 = assay: Antiproliferative activity against human MDA-MB-231 cells measured after 48 hrs by MTT assay; type: functional, cell-based; conditions: MDA-MB-231, 48 h
Huh-7 [15] = assay: Induction of ER stress in human Huh-7 cells assessed as increase in PERK protein level at 4 uM incubated for 48 hrs in presence of 4pba by Western blot analysis; type: functional, cell-based
Huh-7 [16] = assay: Induction of ER stress in human Huh-7 cells assessed as increase in ATF6 protein level at 2 to 4 uM incubated for 48 hrs by Western blot analysis; type: functional, cell-based; conditions: dose 2-4 µM
Huh-7 [17] = assay: Induction of apoptosis in human Huh-7 cells assessed as viable cells at 8 uM measured after 48 hrs by Annexin V-PE staining based flow cytometry analysis (reference value: 93.69%); type: functional; conditions: read-out: Activity
Huh-7 [18] = assay: Induction of ER stress in human Huh-7 cells assessed as increase in PERK protein level at 2 to 4 uM incubated for 48 hrs by Western blot analysis; type: functional, cell-based; conditions: dose 2-4 µM
Huh-7 [19] = assay: Induction of apoptosis in human Huh-7 cells assessed as viable cells at 2 uM measured after 48 hrs by Annexin V-PE staining based flow cytometry analysis (reference value: 93.69%); type: functional; conditions: read-out: Activity
Huh-7 [20] = assay: Induction of apoptosis in human Huh-7 cells assessed as early apoptotic cells at 2 uM measured after 48 hrs by Annexin V-PE staining based flow cytometry analysis (reference value: 0.88%); type: functional
Huh-7 [21] = assay: Induction of morphological change in human Huh-7 cells assessed as nuclear edge aggregation at 2 to 4 uM measured after 48 hrs by HE staining based microscopic analysis; type: functional, cell-based; conditions: dose 2-4 µM
Huh-7 [22] = assay: Induction of apoptosis in human Huh-7 cells assessed as early apoptotic cells at 4 uM measured after 48 hrs by Annexin V-PE staining based flow cytometry analysis (reference value: 0.88%); type: functional
Huh-7 [23] = assay: Induction of mitochondrial ROS release in human Huh-7 cells at 2 uM measured after 24 hrs by fluorescent microscopic analysis; type: functional, cell-based
Huh-7 [24] = assay: Induction of ER stress in human Huh-7 cells assessed as increase in IRE1 protein level at 4 uM incubated for 48 hrs in presence of 4pba by Western blot analysis; type: functional, cell-based
Huh-7 [25] = assay: Induction of ER stress in human Huh-7 cells assessed as increase in GRP78 protein level at 2 to 4 uM incubated for 48 hrs by Western blot analysis; type: functional, cell-based; conditions: dose 2-4 µM
Huh-7 [26] = assay: Induction of apoptosis in human Huh-7 cells assessed as late apoptotic cells at 2 uM measured after 48 hrs by Annexin V-PE staining based flow cytometry analysis (reference value: 2.06%); type: functional
Huh-7 [27] = assay: Upregulation of Caspase 12 expression level in human Huh-7 cells at 2 to 4 uM measured after 48 hrs by Western blot analysis; type: functional, cell-based; conditions: dose 2-4 µM
Huh-7 [28] = assay: Induction of apoptosis in human Huh-7 cells assessed as early apoptotic cells at 8 uM measured after 48 hrs in presence of Z-VAD by Annexin V-PE staining based flow cytometry analysis (reference value: 0.88%); type: functional
Huh-7 [29] = assay: Induction of ER stress in human Huh-7 cells assessed as increase in CHOP protein level at 2 to 4 uM incubated for 48 hrs by Western blot analysis; type: functional, cell-based; conditions: dose 2-4 µM
Huh-7 [30] = assay: Induction of ER damage in human Huh-7 cells assessed as decrease in protein-disulfide bond content at 2 to 4 uM incubated for 48 hrs by absorbance based analysis; type: functional, cell-based; conditions: dose 2-4 µM
Huh-7 [31] = assay: Induction of apoptosis in human Huh-7 cells assessed as necrotic cells at 2 uM measured after 48 hrs by Annexin V-PE staining based flow cytometry analysis (reference value: 3.37%); type: functional
Huh-7 [32] = assay: Induction of ER stress in human Huh-7 cells assessed as increase in IRE1 protein level at 2 to 4 uM incubated for 48 hrs by Western blot analysis; type: functional, cell-based; conditions: dose 2-4 µM
Huh-7 [33] = assay: Induction of morphological change in human Huh-7 cells assessed as appearance of condensed cell nucleus at 2 to 4 uM measured after 48 hrs by HE staining based microscopic analysis; type: functional; conditions: dose 2-4 µM
Huh-7 [34] = assay: Induction of morphological change in human Huh-7 cells assessed as nuclear pyknosis at 2 to 4 uM measured after 48 hrs by HE staining based microscopic analysis; type: functional, cell-based; conditions: dose 2-4 µM
Huh-7 [35] = assay: Induction of apoptosis in human Huh-7 cells assessed as late apoptotic cells at 4 uM measured after 48 hrs by Annexin V-PE staining based flow cytometry analysis (reference value: 2.06%); type: functional

SMILES: COc1ccc(COc2cccc3c2C(=O)c2c(OCc4ccc(OC)cc4)cc(C(=O)NCCNCCO)cc2C3=O)cc1
- Activity (Huh-7 [1]): Active
- Activity (Huh-7 [2]): Active
- Activity (Huh-7 [3]): 10.59%
- Activity (Huh-7 [4]): Active
- viability at 8 µM (Huh-7 [5]): 68.5%
- Activity (Huh-7 [6]): 6.32%
- Activity (Huh-7 [7]): 4.41%
- Activity (Huh-7 [8]): Active
- Drug uptake [9]: Active
- Activity (Huh-7 [10]): inactive
- Activity (Huh-7 [11]): Active
- Activity (Huh-7 [12]): 68.79%
- IC50 (A549): 2580 nM
- Activity (Huh-7 [13]): Active
- Activity (Huh-7 [14]): 1.2%
- IC50 (MDA-MB-231): 600 nM
- Activity (Huh-7 [15]): inactive
- Activity (Huh-7 [16]): Active
- viability at 8 µM (Huh-7 [17]): 23.7%
- Activity (Huh-7 [18]): Active
- viability at 2 µM (Huh-7 [19]): 24.1%
- Activity (Huh-7 [20]): 65.4%
- Activity (Huh-7 [21]): Active
- Activity (Huh-7 [22]): 43.64%
- Activity (Huh-7 [23]): Active
- Activity (Huh-7 [24]): inactive
- Activity (Huh-7 [25]): Active
- Activity (Huh-7 [26]): 4.4%
- Activity (Huh-7 [27]): Active
- Activity (Huh-7 [28]): 16.45%
- Activity (Huh-7 [29]): Active
- Activity (Huh-7 [30]): Active
- Activity (Huh-7 [31]): 6.06%
- Activity (Huh-7 [32]): Active
- Activity (Huh-7 [33]): Active
- Activity (Huh-7 [34]): Active
- Activity (Huh-7 [35]): 7.59%
